Test results published in patent US20100284924A1, “NANO-DEVICES HAVING IMPELLERS FOR CAPTURE AND RELEASE OF MOLECULES” (The Regents of the University of California, priority 2009, published 2010).

Assays:
PANC-1 cancer cells [1] = assay: Photocontrolled staining of cell nuclei by released PI, confocal microscopy; assay type: cell-based, human; settings: free PI not loaded into the particles
Method: FIGS. 8A-8C show confocal microscope images of the photocontrolled staining of the nuclei of PANC-1 cancer cells. Plasma membrane impermeable propidium iodide (PI) molecules were loaded in the pores of LAMS and the dye loaded particles were incubated with the cells for 3 hours in the dark. The cells were then exposed to the activation beam for 1 to 10 min. After further incubation in the dark for 10 min, the cells were examined with confocal microscopy ([…]) FIG. 8A. Cells incubated with the PI-loaded LAMS and illuminated for 0 (a), 1 (b), 3 (c), or 5 min (f) under a constant ˜0.2 W/cm^2, 413 nm light or with different light intensities (˜0.01 (d) or ˜0.1 W/cm^2 (e) for 5 min at a 413 nm light). FIG. 8B. PANC-1 cells incubated with the PI-loaded LAMS (g), free PI molecules (h), or empty LAMS (i) were kept in the dark and exposed to a 413 nm light. FIG. 8C. Cells incubated with the PI-loaded LAMS were illuminated with ˜0.2 W/cm^2, 676 nm light for 0 (j), 1 (k) or 5 min (l). Scale bar: 30 μm.
Based on the successful operation of the impeller in water, in vitro studies were carried out on two human cancer cell lines (PANC-1 and SW480). To detect the photo-responsive behavior of the impellers inside of cells, a membrane-impermeable dye, PI was chosen as the fluorescent probe molecule and loaded into the particles following the same procedure as that used for the Rhodamine B loading. […]

PANC-1 cancer cells [2] = assay: Cell death assay, propidium iodide/Hoechst 33342 double-staining, confocal imaging; assay type: cell-based, human; settings: CPT suspended in PBS, not in particles
Method: FIGS. 9A-9C show light-triggered delivery of the anticancer drug camptothecin (CPT) inside PANC-1 cancer cells to induce apoptosis according to an embodiment of the current invention, CPT molecules were loaded into the pores of the LAMS and a homogeneous suspension of the CPT-loaded particles (10 μg/ml) was added to the cells which were incubated in Lab-Tek chamber slides for 3 hrs in dark. The cells were then irradiated under ˜0.1 W/cm^2, 413 nm light for 1 to 10 min, again incubated in the dark for 48 hours, and double-stained with propidium iodide/Hoechst 33342 solution (1:1). FIG. 9A. CPT-loaded particles were incubated with cancer cells and illuminated for 1 (a), 3 (b), 5 (c) or 10 min (d, e, f). FIG. 9B. […]
Cell Death Assay: Cell death was also examined by using the propidium iodide and Hoechst 33342 double-staining method. The cells incubated on a Lab-Tek chamber slide system were stained with propidium iodide/Hoechst 33342 (1:1) for 5 min after treatment with CPT-loaded LAMS or free LAMS followed by light irradiation, and then examined with fluorescence microscopy. […] The absorbance of each well was measured at 450 nm with a plate reader. Since the absorbance is proportional to the number of viable cells in the medium, the viable cell number was determined by using a previously prepared calibration curve (Dojindo Co.).

CC[N+](C)(CC)CCC[n+]1c(-c2ccccc2)c2cc(N)ccc2c2ccc(N)cc21.[I-].[I-] [PI, propidium iodide]
cell staining (cell entry) (PANC-1 cancer cells [1]): cell staining did not occur

CC[C@@]1(O)C(=O)OCc2c1cc1n(c2=O)Cc2cc3ccccc3nc2-1 [CPT, camptothecin]
cell killing (PANC-1 cancer cells [2]): did not kill the cells
